Inhibition and IC50 data for 5 compounds are collected here from patent US8883778B2, “Cyclic inhibitors of 11 beta-hydroxysteroid dehydrogenase 1” (Vitae Pharmaceuticals, Inc., priority 2009, dated 2014).

Assay [1] addresses T1, 11β-HSD1 (Homo sapiens, UniProt P28845). The assay is described as follows: Inhibition of a microsomal preparation of 11β-HSD1, scintillation proximity assay. Type of assay: biochemical. The settings on record: microsomes from CHO cells overexpressing human 11β-HSD1; for inhibition at 0.1 µM: at 100 nM. Details: expressed in transfected cells; host or cells: CHO cells (microsomes). The procedure:
All reactions were carried out at rt in 96 well clear flexible PET Microbeta plates (PerkinElmer). […] After a 10 minute pre-incubation, 50 μL of enzyme solution containing microsomes isolated from CHO cells overexpressing human 11β-HSD1 (10-20 μg/ml of total protein) was added, and the plates were incubated for 90 minutes at rt. The reaction was stopped by adding 50 μl of the SPA beads suspension containing 10 μM 18β-glycyrrhetinic acid, 5 mg/ml protein A coated YSi SPA beads (GE Healthcare) and 3.3 μg/ml of anti-cortisol antibody (East Coast Biologics) in Superblock buffer (Bio-Rad). The plates were shaken for 120 minutes at rt, and the SPA signal corresponding to [^3H]cortisol was measured on a Microbeta plate reader.
A general note: SPA uses beads or plates that emit light when radiolabelled molecules are held near them.

Assay [2] concerns the target T1, 11β-HSD1. Kind of assay: In vitro inhibition of 11β-HSD1 with HTRF technology, cortisol generated by human liver microsomes. Type of assay: biochemical. Details: detecting cortisol generated from cortisterone by human liver microsomes; from tissue; host or cells: human liver microsomes. To be noted: 1 hour at 37° C., cortisone 80 nM. On the procedure: Briefly, compounds were incubated for 1 hour at 37° C. in Tris buffer (20 mM tris, 5 mM EDTA, pH 6.0) containing NADPH (200 μM) and cortisone (80 nM). Cortisol generated in the reaction is then detected with a competitive immunoassay, involving two HTRF conjugates: cortisol linked to XL665 and anti-cortisol antibody labeled with Europium cryptate. The incubation period for detection reaction was typically 2 hours. The amount of cortisol was determined by reading the time-resolved fluorescence of the wells (Ex 320/75 nm; Em 615/8.5 nm and 665/7.5 nm). The ratio of the two emission signals was then calculated (Em665*10000/Em615). […] Each assay also contained a calibration curve with cortisol to transform the fluorescent data into cortisol concentrations. Percent inhibition of each compound was determined relative to the carbenoxolone signal.

SMILES strings stand for the structures.

T1 sequence (P28845 whole entry): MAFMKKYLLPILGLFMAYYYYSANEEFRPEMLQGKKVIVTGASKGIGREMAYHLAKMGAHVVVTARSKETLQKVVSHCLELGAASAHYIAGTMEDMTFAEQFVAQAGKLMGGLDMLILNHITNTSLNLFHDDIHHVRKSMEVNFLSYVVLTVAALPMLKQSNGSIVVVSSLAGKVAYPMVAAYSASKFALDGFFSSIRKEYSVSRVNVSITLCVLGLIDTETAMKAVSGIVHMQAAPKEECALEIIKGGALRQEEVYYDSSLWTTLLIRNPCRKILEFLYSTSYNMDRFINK

A word on the inhibition: it is the relative decrease from the control value, in per cent. The term IC50 denotes the midpoint of a concentration-inhibition curve. A low value points to greater potency. For the compound `COC(=O)OC1(C#Cc2ccc([C@H](C)N3CC[C@](CC(C)(C)O)(c4ccccc4)OC3=O)cc2)CN(C(=O)OC)C1` [Example 27, Methyl 3-((4-((S)-1-((S)-6-(2-hydroxy-2-methylpropyl)-2-oxo-6-phenyl-1,3-oxazinan-3-yl)ethyl)phenyl)ethynyl)-3-(methoxycarbonyloxy)azetidine-1-carboxylate], in assay [1], the inhibition at 0.1 µM was 95.8% and the concentration for half-maximal inhibition (IC50) is 2.4 nM. Consider `COc1cc(C#Cc2ccc([C@H](C)N3CC[C@](CC(C)(C)O)(c4ccccc4)OC3=O)cc2)ccn1` [Example 28, (S)-6-(2-hydroxy-2-methylpropyl)-3-((S)-1-(4-((2-methoxypyridin-4-yl)ethynyl)phenyl)ethyl)-6-phenyl-1,3-oxazinan-2-one], for which, in assay [1], the inhibition at 0.1 µM stood at 103% and it took 1.7 nM to reach half-maximal inhibition (IC50).

As for `C[C@@H](c1ccc(C#Cc2cc[nH]c(=O)c2)cc1)N1CC[C@](CC(C)(C)O)(c2ccccc2)OC1=O` [Example 29, (S)-6-(2-hydroxy-2-methylpropyl)-3-((S)-1-(4-((2-oxo-1,2-dihydropyridin-4-yl)ethynyl)phenyl)ethyl)-6-phenyl-1,3-oxazinan-2-one], in assay [1], the inhibition at 0.1 µM was 97.9% and the concentration for half-maximal inhibition (IC50) worked out at 1.4 nM. Turning to `C[C@@H](c1ccc(C#Cc2ccn(C)c(=O)c2)cc1)N1CC[C@](CC(C)(C)O)(c2ccccc2)OC1=O` [Example 30, (S)-6-(2-Hydroxy-2-methyl-propyl)-3-{(S)-1-[4-(1-methyl-2-oxo-1,2-dihydro-pyridin-4-ylethynyl)-phenyl]ethyl}-6-phenyl-[1,3]oxazinan-2-one], in assay [2], the IC50 is 29 nM. In the case of `C[C@@H](c1ccc(C#Cc2ccc(=O)n(C)c2)cc1)N1CC[C@](CC(C)(C)O)(c2ccccc2)OC1=O` [Example 31, (S)-6-(2-Hydroxy-2-methyl-propyl)-3-{(S)-1-[4-(1-methyl-6-oxo-1,6-dihydro-pyridin-3-ylethynyl)-phenyl]ethyl}-6-phenyl-[1,3]oxazinan-2-one], the half-inhibitory concentration (IC50) in assay [2] was found to be 30 nM.
